# Results taken from US5151352A, “Process for producing diterpene compounds” (Kyowa Hakko Kogyo Co., Ltd., priority 1990, dated 1992).
# How the values were obtained:
# [1] = test system: Bacillus subtilis ATCC 10707; test: Antibacterial activity, agar dilution method (pH 7.0); assay type: cell-based; conditions: ATCC10707, read-out: minimum growth inhibition concentration (MIC)
# Source text: (§1) The antibacterial activities of UCT4-B on four bacteria (i.e., Staphylococcus aureus, Enterococcus faecium, Bacillus subtilis, Klebsiella pneumoniae) were examined by the agar dilution method (pH 7.0)[refer to "Biseibutsu Jikken Manyuaru (Manual of The Microbial Experiments)" 80, Kodansha (1986)].
# (§2) The results are shown in terms of the minimum growth inhibition concentration (MIC) in Table 2.
# [2] = test system: Enterococcus faecium ATCC 10541; test: as above; assay type: cell-based; conditions: ATCC10541, read-out: minimum growth inhibition concentration (MIC)
# Source text: as §1, §2
# [3] = test system: Klebsiella pneumoniae ATCC 10031; test: as above; assay type: cell-based; conditions: ATCC10031, read-out: minimum growth inhibition concentration (MIC)
# Source text: as §1, §2
# [4] = test system: Staphylococcus aureus ATCC 6538P; test: as above; assay type: cell-based; conditions: ATCC6538P, read-out: minimum growth inhibition concentration (MIC)
# Source text: as §1, §2
# [5] = Acute toxicity, single intravenous administration, 14 days survival; conditions: mouse, in vivo, ddy mice, single i.v., Behrens-Karber method
# Experimental: UCT4-B was intravenously administered once to ddy mice weighing about 20 g (each group having 5 animals) and then the survival state of the animals was monitored for 14 days following the administration. Then LD50 of the compound was calculated based on the mortality of mice in each group in accordance with the Behrens-Karber method.
# [6] = test system: lymphocytic leukemia p338 tumor cells; test: Effect on lymphocytic leukemia (life-prolonging effect); assay type: in vivo, CDF1 male mice; conditions: i.p., 24 hours after i.p. transplantation
# Experimental: 1×10^6 lymphocytic leukemia p338 tumor cells were intraperitoneally transplanted into CDF1 male mice weighing 22 g (each group having 5 animals). 24 hours after the trans- plantation, 0.2 ml of a solution of UCT4-B in physiological saline or 0.2 ml of physiological saline (the control group) was intraperitoneally administered to the animals.
# The results of the test are expressed in terms of T/C (%) calculated by dividing the average survival days of each test group (T) with that of the control group (C).
smiles,measurement,setting,value
CC1C(O)C(=O)C2(C)C(CO)=CCCC2C1(C)CC(O)C1(C(=O)C=O)CO1 (stereo not shown) [UCT4-B],MIC,[1],8.3 µg/mL
same,MIC,[2],4.1 µg/mL
same,MIC,[3],2.1 µg/mL
same,MIC,[4],4.1 µg/mL
same,LD50 at 336 h,[5],≥ 50 mg/kg
same,Life-prolonging effect (T/C %),[6]; 3 mg/kg,124%
same,Life-prolonging effect (T/C %),[6]; 6 mg/kg,131%
same,Life-prolonging effect (T/C %),[6]; 12 mg/kg,127%
same,Life-prolonging effect (T/C %),[6]; 25 mg/kg,137%
same,Life-prolonging effect (T/C %),[6]; 50 mg/kg,141%
same,Solubility,Solubility; acetonitrile,soluble
same,Solubility,Solubility; chloroform,highly soluble
same,Solubility,Solubility; ethyl acetate,highly soluble
same,Solubility,Solubility; hexane,insoluble
same,Solubility,Solubility; methanol,highly soluble
same,Solubility,Solubility; water,soluble
